According to US20060025419A1, “Imidazoquinoxaline compound for the treatment of melanoma” (priority 2004, published 2006):
Peptide text beside a SMILES is read from it. * marks the point of attachment. Cbz = O=C(OCc1ccccc1)*; CH2F = FC*

What was measured:
SK-Mel-5 cells [1] = assay: Nuclear apoptosis (DNA fragmentation) by flow cytometry; format: cell-based, human; conditions: 50 μM, 48 h, p<0.05
Description: FIGS. 4A-4H. […] Paraffin-embedded tumor tissues were subjected to H&E staining (FIGS. 4C & D) and DeadEnd Fluorometric TUNEL-assay for detection of apoptosis (FIGS. 4E & F). The TUNEL-positive cells are visualized in green fluorescence in a red (Propidium Iodide) background by fluorescence microscopy. […] After 36 h incubation, cells were collected and fixed with 1% formaldehyde and 70% ice-cold ethanol. The apoptotic cells were examined using TUNEL-assay and analyzed by flow cytometry through measuring fluorescein-12-dUTP at 520 nm. The apoptotic rate is indicated in each box. Data shown are represented one of three independent experiments. […] Cells were fixed and stained with Propidium iodide. Cell fluorescence was measured by flow cytometry and the data were analyzed using DNA content histogram deconvolution software (Multicycle from Phoenix Flow Systems). The percentage of apoptotic cells with fragmented DNA (PI intensity sub-G0/G1) is indicated at each time point. The experiments were repeated twice, in duplicates for each point (total n=4).

SK-Mel-5 cells [2] = assay: Western blot / confocal analysis of apoptotic proteins in subcellular fractions; format: cell-based, human; conditions: 50 μM with 10 μM BMS-345541, Western blot and confocal microscopy
Description: Subcellular mitochondria and cytoplasm were prepared and subjected to Western blot analysis for Bcl-2 and Bax. […] After exposure, mitochondria were isolated and incubated with 80 μM 3,3′dihexyloxacarbocyanine iodide (DiOC6) at 37° C. for 15 min. Δψm was determined by FACS analysis using 484/530 nm filters within 10 min while gating the forward and sideward scatters on intact mitochondria (FIG. 5C). […] Subcellular extracts were prepared and subjected to Western blot analysis for cytochrome-C and AIF. […] The supernatant was assessed for cytochrome-c release. 200 μM Ca^2+ was used as a positive control.
The cellular caspase-3 activity in samples was detected as described in Materials and Methods. […] Cells were fixed and stained with propidium iodide staining as described in FIG. 4H. The percentage of cell death was measured with flow cytometry. […] Cytosol was extracted and subjected to Western blot analysis for AIF, cytochrome-c (cyto-C) and actin. Actin was used as a loading control protein. […] Ref-1 was used as a nuclear marker protein. All data shown here were from three independent experiments. […] SK-Mel-5 cells were exposed to 10 μM BMS and/or pan-caspase inhibitor (Z-VAD-fmk, 50 μM).
Proteins from cell extracts were separated by 12% SDS-PAGE and electrophoretically transferred to nitrocellulose membranes. Nonspecific binding was blocked with 5% milk in TBST buffer (4 mM Tris base, 100 mM NaCl, pH 7.5, 0.05% Tween), incubated with the indicated primary antibodies with a dilution of 1:1000 at room temperature for 2 h or 4° C. for overnight and then with horseradish peroxidase-conjugated secondary antibody for 1 h. Blots were visualized by enhanced chemiluminescence assay.
The Mitochondria Isolation Kit (Pierce, Rockford, Ill.) was used for isolation of mitochondria from cultured melanoma cells according to the manufacture's instruction for the Reagent-based method. Briefly, cells (2×10^7) were collected, washed with PBS buffer and resuspended in 0.8 ml of Reagent A on ice for 2 min. 10 μl of Reagent B was added and samples were kept on ice, with vortexing very minute for 5 min. After addition of 0.8 ml of Reagent C, the mixture was centrifuged at 700×g for 10 min to remove the cell debris and nuclei. The supernatant was then centrifuged at 3,000×g for 15 min. The pellet (mitochondria) was washed with Reagent C. The purity of mitochondria was determined by Western blotting with β-actin, where β-actin negative preparation were fully to be pure. The supernatant (cytosolic fraction) was further cleared by centrifugation at 12,000×g for 15 min.
Cells were incubated with the anti-AIF polyclonal antibody for 2 h. Cells were washed twice and incubated with the secondary antibody conjugated with FITC for 1 h.

caspase-3 = assay: Caspase-3 activity assay (Ac-DEVD-pNA) in cytosol extracts; format: cell-based, human; conditions: 50 μM pan-caspase inhibitor, 10 μM BMS-345541
human melanoma grafts = assay: Tumor growth in tumor-bearing mice treated with temozolomide; format: in vivo; conditions: daily 60 mg/kg orally

Row | SMILES | cells protected from nuclear apoptosis induced by 10 μM BMS-345541 (SK-Mel-5 cells [1]) [%] | influence on AIF translocation to nucleus and nuclear condensation (SK-Mel-5 cells [2]) | block of BMS-345541 induction of caspase-3 activity (caspase-3) [%] | tumor growth inhibition (human melanoma grafts) [%]
1 | COC(=O)C[C@H](NC(=O)[C@H](C)NC(=O)[C@@H](NC(=O)OCc1ccccc1)C(C)C)C(=O)CF [Z-VAD-fmk, reference compound] (Cbz-Val-Ala-Asp(OMe)-CH2F) | 11 | failed to influence | 87.2 | –
2 | Cn1nnc2c(C(N)=O)ncn2c1=O [temozolomide] | – | – | – | 81
